Series [1] in a line: Pharmacokinetic study, oral dosing in Sprague-Dawley rats (AUC/D). The class given is in vivo. Particulars: dosed orally in rats; dose-normalized plasma AUC. As for the experimental part:
(§1) Compounds were dosed orally to Sprague-Dawley rats, using appropriate formulations and doses. Serial blood samples were collected at selected time points post-dosing. Plasma was separated from the blood by centrifugation. 25 μL of plasma (sample, standard or QC) was combined with 25 μL of internal standard and 250 μL acetonitrile. Following vortexing to mix, the plates were centrifuged to separate the precipitated proteins. A 50 μL aliquot of the supernatant was transferred to a clean 96-well plate and diluted with 100 μL 0.1% formic acid. Stock standards were prepared in DMSO, with intermediate dilutions in acetonitrile:water (50:50, by volume). Samples were analyzed by LC-MS. The drug level curves were used to calculate dose-normalized area under the curve (AUC/D) data, which are reported as μg-hr/mL per mg/kg.

Series [2] in a line: Parent vs. metabolite levels in plasma after oral dosing in rats. To be noted: oral 20 mg/kg, based on AUC(0-∞), 10 plasma samples over 12 hours, vs 4″-debenzylated metabolite. The class given is in vivo. As for the experimental part:
Pharmacokinetic properties of compounds having three non-hydrogen substituents at the alpha-position of the ester (i.e., a tri-substituted ester) were further examined. A compound having a 4″-tri-substituted ester moiety (Compound 14) was compared to a di-substituted control compound. The compounds were dosed orally, 20 mg/kg, in rats.
Pharmacokinetic properties of compounds having a 4″-benzyl moiety were further examined. A compound having a 4″-halobenzyl moiety (Compound 10) was compared to a compound having an unsubstituted 4″-benzyl moiety. The compounds were dosed orally, 20 mg/kg, in rats.

For series [3], the system named is S. aureus ATCC29213. The series is described as follows: Broth microdilution MIC. In kind it is cell-based. To be noted: Staphylococcus aureus, 35° C., approximately 20 hours. How it is done:
(§2) Minimum inhibitory concentration (“MIC”) values for the isolates were determined using a broth microdilution method. The wells of a standard 96-well microdilution plate (Costar 3795, Corning Inc., Corning, N.Y.) were filled with 150 μL of an appropriate diluent. For test compounds supplied as powders, Column 1 was filled with 300 μL of either the investigational or comparator agents at the appropriate stock concentration (40× the highest test concentration). A Biomek 200 was used to make eleven 2-fold serial dilutions to create a “mother plate”. For compounds supplied as DMSO stocks, compounds were diluted to 50× the highest test concentrations and 2-fold serial dilutions were made manually.
(§3) For compounds supplied as solids, “daughter plates” were loaded with 185 μL using the Multidrop 384. These daughter plates were prepared on the Biomek F/X instrument which transferred 5 μL of drug solution from each well of the mother plate to each corresponding well of each daughter plate in a single step. For compounds supplied as DMSO stock, daughter plates were filled with 90 μL of media and 2 μL of drug solution from each well of the mother plate was added to each corresponding well manually.
(§4) A suspension of standardized inoculum for each organism, equivalent to a 0.5 McFarland standard, was diluted 1:10 in Mueller Hinton II broth resulting in a final concentration of approximately 5×10^5 CFU/mL during testing. Inocula were transferred to compartments of sterile reservoirs divided by length. The Biomek 2000 was used to inoculate all plates. Daughter plates were placed on the Biomek 2000 in reverse orientation so that plates were inoculated from low to high drug concentration. The Biomek 2000 delivered 10 μL of standardized inoculum into each well of the appropriate daughter plate. The final concentration of DMSO (if used as a solvent) in the test wells was 2.5%.
(§5) Plates were stacked 3 high, covered with a lid on the top plate, placed into plastic bags, and incubated at 35° C. for approximately 20 hours. […] MIC values were read where visible growth of the organism was inhibited.
For orientation: Broth dilution looks for growth in wells or tubes with falling amounts of substance.

Series [4] has as its system E. faecalis ATCC29212. Briefly: Broth microdilution MIC. The class given is cell-based. To be noted: Enterococcus faecalis, 35° C., approximately 20 hours. As for the experimental part: as §2, §3, §4, §5
The test system of series [5] is H. influenza ATCC49247. The series is described as follows: Broth microdilution MIC. The class given is cell-based. Particulars: Haemophilus influenzae, 35° C., approximately 20 hours. As for the experimental part:
as §2, §3, §4, §5

The subject of series [6] is S. pneumonia ATCC49619. Briefly: Broth microdilution MIC. The class given is cell-based. To be noted: Streptococcus pneumoniae, 35° C., approximately 20 hours. How it is done: as §2, §3, §4, §5
The subject of series [7] is S. epidermis ATCC49134. Briefly: Broth microdilution MIC. In kind it is cell-based. Particulars: Staphylococcus epidermidis, 35° C., approximately 20 hours. How it is done: as §2, §3, §4, §5
The nature of series [8]: Pharmacokinetic study, oral dosing in BALB/c mice (AUC/D). In kind it is in vivo. Particulars: dosed orally in mice; when Compound 43 was dosed, levels of Compound 19 were measured; when Compound 46 was dosed, levels of Compound 10. As for the experimental part: as §1, with “Alternatively, compounds” for “Compounds”, “BALB/c mice,” for “Sprague-Dawley rats,”
When Compound 43 was dosed, levels of Compound 19 were measured; when Compound 46 was dosed, levels of Compound 10 were measured. Thus, Compounds 43 and 46 serve as prodrugs for Compounds 19 and 10, respectively. Administration of 4′″-modified prodrugs provided greater exposure to the 4′″ deacylated metabolite as compared to administration of the corresponding metabolite itself. […]

Series [9] has as its system Staphylococcus aureus ATCC 25923. Briefly: Agar disc diffusion assay (zone of inhibition). The class given is cell-based. Particulars: 10 μg on 7 mm paper disc (antibacterial standard). How it is done: Antibacterial tests were performed on a series of tylosin A derivatives via the ‘agar disc diffusion’ assay. This assay is employed to determine the sensitivity of pathogens to chemical entities under investigation and is a standardized procedure outlined in 1961 by the World Health Organization.
Bacteria tested were a standard gram positive organism; Staphylococcus aureus ATCC 25923 (available from the American Type Culture Collection).
Colonies of bacteria are dispensed into liquid Mueller-Hinton II broth (available from Becton, Dickinson and Company), agitated and then streaked onto prepared Mueller-Hinton agar plates. Bacteria were allowed to grow for 16 hours at 37 degrees C. A sterile loupe was used to select 4-5 isolates from the cultures thus grown, and dispensed into Mueller-Hinton broth. […]
To obtain a dose response curve against Staphylococcus aureus, 20 μL (20 nanomoles) of each tylosin A derivative to be tested as obtained from the company compound repository at 1 mM stock solution in DMSO was dispensed onto a 7 mm blank paper disc (available from BBL, Le Pont du Claire, France). […] At this time, the ‘zone of inhibition’ around each 7 mm paper disc (inclusive of the disc itself) was measured and recorded in Table 6 below.
For orientation: Agar diffusion results depend on both activity and mobility in agar.

≈ marks a conversion by molar mass, not a printed value.

On to `CC[C@H]1OC(=O)C[C@@H](O)[C@H](C)[C@@H](O[C@@H]2O[C@H](C)[C@@H](O[C@H]3C[C@@](C)(O)[C@@H](OCc4ccccc4)[C@H](C)O3)[C@H](N(C)C)[C@H]2O)[C@@H](CC=O)C[C@@H](C)C(=O)/C=C/C(C)=C/[C@@H]1CO[C@@H]1O[C@H](C)[C@@H](O)[C@@H](OC)[C@H]1OC` [Compound G, Tylosin A 4″ O-Benzyl], for which, in series [1], the AUC/D is listed as 0.05 μg-hr/mL per mg/kg. The Parent % in [2] was 95%. Besides, the MIC came to 4 µg/mL (≈ 3.98 µM) in series [3]; 2 µg/mL (≈ 1.99 µM) in [4]; 16 µg/mL (≈ 15.9 µM) in series [5]; 0.25 µg/mL (≈ 0.248 µM) in series [6]; 2 µg/mL (≈ 1.99 µM) in [7].

`CC[C@H]1OC(=O)C[C@@H](O)[C@H](C)[C@@H](O[C@@H]2O[C@H](C)[C@@H](O[C@H]3C[C@@](C)(O)[C@@H](O)[C@H](C)O3)[C@H](N(C)C)[C@H]2O)[C@@H](CC=O)C[C@@H](C)C(=O)/C=C/C(C)=C/[C@@H]1CO[C@@H]1O[C@H](C)[C@@H](O)[C@@H](OC)[C@H]1OC` [Tylosin A, 2-((4R,5S,6S,7R,9R,11E,13E,15R,16R)-6-(((2R,3R,4R,5S,6R)-5-(((2S,4R,5S,6S)-4,5-dihydroxy-4,6-dimethyltetrahydro-2H-pyran-2-yl)oxy)-4-(dimethylamino)-3-hydroxy-6-methyltetrahydro-2H-pyran-2-yl)oxy)-16-ethyl-4-hydroxy-15-((((2R,3R,4R,5R,6R)-5-hydroxy-3,4-dimethoxy-6-methyltetrahydro-2H-pyran-2-yl)oxy)methyl)-5,9,13-trimethyl-2,10-dioxooxacyclohexadeca-11,13-dien-7-yl)acetaldehyde]: the values for the AUC/D in series [1] and in series [8] were 0.0097 μg-hr/mL per mg/kg and 0.0054 μg-hr/mL per mg/kg, respectively. Also, the MIC in series [3] came to 2 µg/mL (≈ 2.18 µM); in [4], 1 µg/mL (≈ 1.09 µM); in series [5], 16 µg/mL (≈ 17.5 µM); in [6], 0.25 µg/mL (≈ 0.273 µM); in series [7], 1 µg/mL (≈ 1.09 µM).

Gentamicin: the Zone of inhibition in series [9] is 23 mm.

The record behind these values is patent publication US20160200757A1, “TYLOSIN A ANALOGS AND DERIVATIVES” (AbbVie Inc., priority 2014, published 2016).
